Measured values reported in patent US9458123B2, “Methods, pharmaceutical compositions, therapeutic systems, and compounds for treating B cell malignancies” (University of Rochester, priority 2012, dated 2016).

Experiments:
[1] = test system: IκBα phosphorylation by LPS in MEF cells; assay: IκBα phosphorylation after LPS, western blot; type: cell-based, Mouse; settings: LPS 1.5 μg/ml
Procedure: SUDHL-6, RAW264.7, and MEF cells were treated with NSC697923 or DMSO (control) for 1 hour before being stimulated with the PMA (100 ng/ml), RANKL (15 ng/ml), and LPS (1.5 μg/ml) for the indicated times. The levels of IκBα phosphorylation in the indicated samples were assessed by western blotting.
HEK293T cells were grown in DMEM supplemented with 10% fetal bovine serum (FBS). Diffuse large B cell lymphoma (DLBCL) cells SUDHL-6, OCI-Ly3, OCI-Ly7, OCLLy10, and HBL-1 were cultured as previously described (Davis et al., “Constitutive Nuclear Factor KappaB Activity is Required for Survival of Activated B Cell-Like Diffuse Large B Cell Lymphoma Cells,” J. Exp. Med. 194:1861-1874 (2001) and Kim et al., “Protein Kinase C-Associated Kinase is Required for NF-kappaB Signaling and Survival in Diffuse Large B-Cell Lymphoma Cells,” Blood 111:1644-1653 (2008), each of which is hereby incorporated by reference in its entirety). RAW264.7 cells were cultured in α-MEM medium supplemented with 10% FBS. Mouse embryo fibroblasts (“MEFs”) were prepared from day 14 embryos as previously described (Kamijo et al., “Tumor Suppression at the Mouse INK4a Locus Mediated by the Alternative Reading Frame Product p19ARF,” Cell 91:649-659 (1997), which is hereby incorporated by reference in its entirety). MEFs with less than four passages were used for the experiments described here. […]

Ubc13-Uev1A = molecular target: T1, Ubc13-Uev1A (Homo sapiens, UniProt P61088); assay: In vitro ubiquitination assay, Ubc13-Uev1A; type: biochemical
T1 construct: purchased Boston Biochem Inc E2-600 (Ubc13); E2-662 (Uev1A)
T1 sequence (P61088 whole entry): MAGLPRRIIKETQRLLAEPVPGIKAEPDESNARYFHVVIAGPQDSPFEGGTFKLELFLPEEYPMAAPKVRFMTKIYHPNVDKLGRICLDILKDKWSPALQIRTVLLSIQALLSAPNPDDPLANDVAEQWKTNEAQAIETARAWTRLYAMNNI
T1 sequence (Q13404 whole entry partner): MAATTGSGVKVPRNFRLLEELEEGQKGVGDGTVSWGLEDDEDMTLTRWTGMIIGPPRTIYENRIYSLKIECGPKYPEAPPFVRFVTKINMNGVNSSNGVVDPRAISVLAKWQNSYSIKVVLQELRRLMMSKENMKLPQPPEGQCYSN
Procedure: The in vitro reaction, which contains purified E1, ubiquitin, Ubc13, and Uev1A, was carried out with or without the indicated concentrations of NSC697923. The reaction products were analyzed by a ubiquitin-specific antibody on western blots. FIG. 4B is the same as FIG. 4A, except that purified GST-TRAF6 was included as the E3 in the complete reaction as indicated. […] The assay was carried out as in FIG. 4B, except that UbcHSc instead of Ubc13-Uev1A was used as the E2 in the ubiquitination reaction.
The purified recombinant proteins used in the in vitro ubiquitination reactions were all purchased from Boston Biochem Inc, except GST-TRAF6, which was expressed and purified as described above. The reactions were carried out at 37° C. for 40 minutes in a buffer containing 50 mM Tris-HCl, pH 7.5, 5 mM MgCl2, 200 μM ATP, 120 μM ubiquitin (U-100H), and 0.1 μM E1 (E-304). For the Ubc13-mediated ubiquitin chain synthesis, the reaction mixture includes 0.2 μM Ubc13 (E2-600) and […] Uev1A (E2-662) with or without GST-TRAF6 as indicated. For UbcHSc-catalyzed ubiquitination, UbcHSc (E2-627), instead of Ubc13 and Uev1A, was used in the reaction. […] The reactions were terminated by the addition of an equal volume of SDSPAGE sample buffer, and the products were analyzed by western blotting with a ubiquitin specific antibody.

[2] = test system: constitutive NF-κB signaling in OCI-Ly10 cells; assay: Constitutive NF-κB signaling in ABC DLBCL cells, western blot; type: cell-based; settings: 3.5 hours
Procedure: OCI-Ly10 cells were treated with the indicated concentrations of NSC697923 for 3 hours. The levels of Ubc13˜Ub conjugate were analyzed by western blotting using a Ubc13-specific antibody as described in FIG. 4B. […] OCI-Ly10 cells were treated with DMSO (0.1%) or the indicated concentrations of NSC697923 for 3.5 hours. The levels of the indicated proteins were analyzed by western blotting with the respective antibodies.

multiple myeloma cells = assay: Growth of multiple myeloma cells, trypan blue exclusion assay; type: cell-based; settings: 24 hours
Procedure: (§1) The indicated multiple myeloma cells were seeded at 300,000 cells/mL in 6-well plates and cultured in the presence of DMSO (0.2%, control) or various concentrations of NSC697923 for 24 hours. The live and dead cells were counted using the trypan blue exclusion assay. Shown are the means from 3 separate experiments. The average number of live cells in the control was set at 100.
as §1, with “It has been shown that multiple myeloma cells also depend on NF-kB signaling for survival. It was thus hypothesized that these cells may also sensitive to NSC697923 treatment. […] The indicated” for “The indicated”

SMILES: Cc1ccc(S(=O)(=O)c2ccc([N+](=O)[O-])o2)cc1 [NSC697923, 2-nitro-5-tosylfuran]
- IκBα phosphorylation by LPS [1]: inhibited
- polyubiquitin chain formation catalyzed by Ubc13-Uev1A (Ubc13-Uev1A; E1, ubiquitin, Ubc13, Uev1A, without E3): inhibited polyubiquitin chain formation catalyzed by Ubc13-Uev1A complex in a dose-dependent manner
- ubiquitin chain formation catalyzed by Ubc13-Uev1A together with TRAF6 (Ubc13-Uev1A; GST-TRAF6 as E3): similarly inhibited by NSC697923 in a dose-dependent manner
- expression of Mc1-1 [2]: is inhibited
- expression of p100 [2]: is inhibited
- phosphorylation of IKK [2]: inhibited phosphorylation
- phosphorylation of IκBα [2]: inhibited phosphorylation
- growth of multiple myeloma cells (multiple myeloma cells): inhibits the growth of multiple myeloma cells
